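Method: 48-hour compound exposure of cells in 96-well plates, five concentrations, linear interpolation of endpoints. GI50 marks 50% less growth. TGI: total growth inhibition.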
Tests used:
Assay in all cases: NCI tumour cell line growth inhibition, 48 h
M14 melanoma = system: M14 melanoma
K-562 leukemia = system: K-562 leukemia
TK-10 renal = system: TK-10 renal
SF-539 CNS = system: SF-539 CNS
HOP-62 NSCLC = system: HOP-62 NSCLC
SF-295 CNS = system: SF-295 CNS
HL-60(TB) leukemia = system: HL-60(TB) leukemia
SNB-19 CNS = system: SNB-19 CNS
UO-31 renal = system: UO-31 renal
MOLT-4 leukemia = system: MOLT-4 leukemia
IGROV1 ovarian = system: IGROV1 ovarian
HCT-15 colon = system: HCT-15 colon
MALME-3M melanoma = system: MALME-3M melanoma
MDA-MB-435 = system: MDA-MB-435
OVCAR-8 ovarian = system: OVCAR-8 ovarian
T-47D breast = system: T-47D breast
RXF 393 renal = system: RXF 393 renal
NCI-H226 lung = system: NCI-H226 lung
A498 renal = system: A498 renal
SK-MEL-2 melanoma = system: SK-MEL-2 melanoma
UACC-257 melanoma = system: UACC-257 melanoma
NCI-H460 lung = system: NCI-H460 lung
HCC-2998 colon = system: HCC-2998 colon
NCI-H23 lung = system: NCI-H23 lung
HT29 colon = system: HT29 colon
CCRF-CEM leukemia = system: CCRF-CEM leukemia
NCI/ADR-RES ovarian = system: NCI/ADR-RES ovarian
NCI-H522 lung = system: NCI-H522 lung
BT-549 breast = system: BT-549 breast
MDA-MB-231 breast = system: MDA-MB-231 breast
OVCAR-5 ovarian = system: OVCAR-5 ovarian
SF-268 CNS = system: SF-268 CNS
SK-OV-3 ovarian = system: SK-OV-3 ovarian
786-0 renal = system: 786-0 renal
COLO 205 colon = system: COLO 205 colon
U251 CNS = system: U251 CNS
HS 578T breast = system: HS 578T breast
SK-MEL-28 melanoma = system: SK-MEL-28 melanoma
A549 NSCLC = system: A549 NSCLC
SW-620 colon = system: SW-620 colon
SK-MEL-5 melanoma = system: SK-MEL-5 melanoma
MCF7 breast = system: MCF7 breast
LOX IMVI melanoma = system: LOX IMVI melanoma
ACHN renal = system: ACHN renal
SR leukemia = system: SR leukemia
SNB-75 CNS = system: SNB-75 CNS
EKVX NSCLC = system: EKVX NSCLC
DU-145 prostate = system: DU-145 prostate
OVCAR-4 ovarian = system: OVCAR-4 ovarian
KM12 colon = system: KM12 colon
SN12C renal = system: SN12C renal
RPMI-8226 leukemia = system: RPMI-8226 leukemia
UACC-62 melanoma = system: UACC-62 melanoma
HCT-116 colon = system: HCT-116 colon
CAKI-1 renal = system: CAKI-1 renal
OVCAR-3 ovarian = system: OVCAR-3 ovarian
HOP-92 NSCLC = system: HOP-92 NSCLC

Compound `COc1cc(/C=C/C(=O)c2ccc(Nc3nc(Nc4ccccc4)nc(Nc4ccc(Cl)cc4)n3)cc2)cc(OC)c1OC` has a GI50 (M14 melanoma) of 15.1 µM, a TGI (M14 melanoma) greater than 32.5 µM and a GI50 (K-562 leukemia) of 4.18 µM. For the same compound, the TGI (K-562 leukemia) was greater than 32.5 µM, the GI50 (TK-10 renal) was 19.1 µM and the TGI (TK-10 renal) was greater than 32.5 µM. It also gave a GI50 (SF-539 CNS) of 6.84 µM, a TGI (SF-539 CNS) of 16.2 µM and a GI50 (HOP-62 NSCLC) greater than 32.5 µM. The TGI (HOP-62 NSCLC) was greater than 32.5 µM, the GI50 (SF-295 CNS) was 7.22 µM and the TGI (SF-295 CNS) was greater than 32.5 µM. It also gave a GI50 (HL-60(TB) leukemia) of 1.18 µM, a TGI (HL-60(TB) leukemia) of 11.3 µM and a GI50 (SNB-19 CNS) greater than 32.5 µM. It also gave a TGI (SNB-19 CNS) greater than 32.5 µM, a GI50 (UO-31 renal) of 2.46 µM and a TGI (UO-31 renal) greater than 32.5 µM. It also gave a GI50 (MOLT-4 leukemia) of 2.65 µM, a TGI (MOLT-4 leukemia) greater than 32.5 µM and a GI50 (IGROV1 ovarian) of 8.17 µM. For the same compound, the TGI (IGROV1 ovarian) was greater than 32.5 µM, the GI50 (HCT-15 colon) was 8.86 µM and the TGI (HCT-15 colon) was greater than 32.5 µM. The GI50 (MALME-3M melanoma) was 9.71 µM, the TGI (MALME-3M melanoma) was greater than 32.5 µM and the GI50 (MDA-MB-435) was 11.3 µM. For the same compound, the TGI (MDA-MB-435) was greater than 32.5 µM, the GI50 (OVCAR-8 ovarian) was 3.34 µM and the TGI (OVCAR-8 ovarian) was greater than 32.5 µM. It also gave a GI50 (T-47D breast) of 3.03 µM, a TGI (T-47D breast) greater than 32.5 µM and a GI50 (RXF 393 renal) of 5.09 µM. The TGI (RXF 393 renal) was 25.3 µM, the GI50 (NCI-H226 lung) was 7.66 µM and the TGI (NCI-H226 lung) was greater than 32.5 µM. The GI50 (A498 renal) was 28.2 µM, the TGI (A498 renal) was greater than 32.5 µM and the GI50 (SK-MEL-2 melanoma) was greater than 32.5 µM. The TGI (SK-MEL-2 melanoma) was greater than 32.5 µM, the GI50 (UACC-257 melanoma) was greater than 32.5 µM and the TGI (UACC-257 melanoma) was greater than 32.5 µM. The GI50 (NCI-H460 lung) was 8.71 µM, the TGI (NCI-H460 lung) was greater than 32.5 µM and the GI50 (HCC-2998 colon) was greater than 32.5 µM. It also gave a TGI (HCC-2998 colon) greater than 32.5 µM, a GI50 (NCI-H23 lung) of 11.9 µM and a TGI (NCI-H23 lung) greater than 32.5 µM. The GI50 (HT29 colon) was 5.39 µM, the TGI (HT29 colon) was greater than 32.5 µM and the GI50 (CCRF-CEM leukemia) was 4.12 µM. The TGI (CCRF-CEM leukemia) was greater than 32.5 µM, the GI50 (NCI/ADR-RES ovarian) was 31.5 µM and the TGI (NCI/ADR-RES ovarian) was greater than 32.5 µM. It also gave a GI50 (NCI-H522 lung) of 13.9 µM, a TGI (NCI-H522 lung) greater than 32.5 µM and a GI50 (BT-549 breast) of 7.51 µM. For the same compound, the TGI (BT-549 breast) was greater than 32.5 µM, the GI50 (MDA-MB-231 breast) was 18.5 µM and the TGI (MDA-MB-231 breast) was greater than 32.5 µM. The GI50 (OVCAR-5 ovarian) was 10.4 µM, the TGI (OVCAR-5 ovarian) was greater than 32.5 µM and the GI50 (SF-268 CNS) was 23.8 µM. For the same compound, the TGI (SF-268 CNS) was greater than 32.5 µM, the GI50 (SK-OV-3 ovarian) was greater than 32.5 µM and the TGI (SK-OV-3 ovarian) was greater than 32.5 µM. For the same compound, the GI50 (786-0 renal) was 9.84 µM, the TGI (786-0 renal) was greater than 32.5 µM and the GI50 (COLO 205 colon) was 8.55 µM. It also gave a TGI (COLO 205 colon) greater than 32.5 µM, a GI50 (U251 CNS) of 4.62 µM and a TGI (U251 CNS) greater than 32.5 µM. For the same compound, the GI50 (HS 578T breast) was 15.2 µM, the TGI (HS 578T breast) was greater than 32.5 µM and the GI50 (SK-MEL-28 melanoma) was 14.5 µM. It also gave a TGI (SK-MEL-28 melanoma) greater than 32.5 µM, a GI50 (A549 NSCLC) greater than 32.5 µM and a TGI (A549 NSCLC) greater than 32.5 µM. It also gave a GI50 (SW-620 colon) of 8.46 µM, a TGI (SW-620 colon) greater than 32.5 µM and a GI50 (SK-MEL-5 melanoma) of 4.76 µM. For the same compound, the TGI (SK-MEL-5 melanoma) was 30.6 µM, the GI50 (MCF7 breast) was 2.02 µM and the TGI (MCF7 breast) was greater than 32.5 µM. The GI50 (LOX IMVI melanoma) was 7.19 µM, the TGI (LOX IMVI melanoma) was greater than 32.5 µM and the GI50 (ACHN renal) was 10.8 µM. The TGI (ACHN renal) was greater than 32.5 µM, the GI50 (SR leukemia) was 1.07 µM and the TGI (SR leukemia) was 19.3 µM. The GI50 (SNB-75 CNS) was 6.05 µM, the TGI (SNB-75 CNS) was greater than 32.5 µM and the GI50 (EKVX NSCLC) was 24.1 µM. For the same compound, the TGI (EKVX NSCLC) was greater than 32.5 µM, the GI50 (DU-145 prostate) was greater than 32.5 µM and the TGI (DU-145 prostate) was greater than 32.5 µM. The GI50 (OVCAR-4 ovarian) was 14 µM, the TGI (OVCAR-4 ovarian) was greater than 32.5 µM and the GI50 (KM12 colon) was 8.83 µM. It also gave a TGI (KM12 colon) greater than 32.5 µM, a GI50 (SN12C renal) of 20.9 µM and a TGI (SN12C renal) greater than 32.5 µM. For the same compound, the GI50 (RPMI-8226 leukemia) was 2.21 µM, the TGI (RPMI-8226 leukemia) was 20.9 µM and the GI50 (UACC-62 melanoma) was 14.7 µM. It also gave a TGI (UACC-62 melanoma) greater than 32.5 µM, a GI50 (HCT-116 colon) of 2.68 µM and a TGI (HCT-116 colon) greater than 32.5 µM. It also gave a GI50 (CAKI-1 renal) of 11 µM, a TGI (CAKI-1 renal) greater than 32.5 µM and a GI50 (OVCAR-3 ovarian) of 8.62 µM. It also gave a TGI (OVCAR-3 ovarian) greater than 32.5 µM, a GI50 (HOP-92 NSCLC) of 1.91 µM and a TGI (HOP-92 NSCLC) greater than 32.5 µM.

Reference: PubChem BioAssay (NCI)
